Tests used:
[1] = Pharmacokinetics of noribogaine in healthy male volunteers (plasma, urine, LCMSMS)
[2] = test system: healthy, drug-free male volunteers; assay: Cold pressor test in healthy volunteers; assay type: in vivo, human; details: 3-60 mg single oral dose, 1° C. water
Experimental: Analgesic effect was assessed based on duration of hand immersion in ice water and on visual analog scale (VAS) pain scores upon hand removal from the water bath.
Safety and tolerability of noribogaine were tested in the group of volunteers from Example 9. […] Safety evaluations included clinical monitoring, recording of adverse events (AEs), safety laboratory tests, vital signs, ECG telemetry from −2 h to 6 h after dosing, and 12-lead electrocardiograms (ECGs) up to 216 hours post-dosing.

[3] = test system: opioid-dependent participants; assay: QT interval evaluation in opioid-dependent patients; assay type: in vivo, human; details: 60, 120, 180 mg, first 24 hours; correlated with serum concentration
Experimental: Patients' QT intervals were evaluated at regular time points throughout the study.

[4] = Human pharmacokinetic study, single oral tablet, fasting healthy volunteers (serum); assay type: in vivo; details: fasting, serum
Experimental: In double blind studies, fasting healthy volunteers (6 per cohort) were treated once orally with a tablet of noribogaine HCl. In escalating cohorts, the volunteers received 3 mg, 10 mg, 30 mg or 60 mg noribogaine.

[5] = test system: opioid-dependent participants; assay: Treatment emergent adverse events in opioid-dependent participants (Phase IB); assay type: in vivo, human
Experimental: This example is to illustrate that noribogaine can be administered at a therapeutic dosing while maintaining an acceptable QT interval.
See PCT Application No. PCT/US2013/069235, filed Nov. 8, 2013, which is incorporated herein by reference in its entirety.
Three cohorts of nine (9) subjects (6 administered noribogaine and 3 administered placebo in each cohort) were evaluated for tolerability, pharmacokinetics, and efficacy. Cohort 1 received a single dose of 60 mg noribogaine or placebo. Cohort 2 received a single dose of 120 mg noribogaine or placebo. Cohort 3 received a single dose of 180 mg noribogaine or placebo.

cynomolgus monkey = assay: Single dose toxicity in cynomolgus monkeys; assay type: in vivo; details: oral gavage
Experimental: The objective of the study was to determine the toxicity and toxicokinetic profile of noribogaine following oral (gavage) administration to the cynomolgus monkey. Each dose was followed by a 7 day washout period. Dosing was staggered by 45 minutes. On study day 15, one animal was administered 80 mg/kg and the other animal was administered 160 mg/kg. The test article was administered as follows in Table 1:
Parameters monitored on the study included: mortality, clinical signs and body weights. Blood samples were collected for TK evaluation. […] The single dose maximum tolerated dose (MTD) was determined to be greater than 160 mg/kg based on the parameters monitored during the study.

[6] = 30 mg single oral dose, plasma, mean (SD), n = 6

Compound: CC[C@H]1CC2C[C@H]3c4[nH]c5ccc(O)cc5c4CCN(C2)C13 [noribogaine]
- CL/F ([1]; 3 mg single oral dose, plasma, mean (SD), n = 6): 41.4 (7.0) L/h
- CL/F ([1]; 10 mg single oral dose, plasma, mean (SD), n = 6): 42.3 (12.0) L/h
- CL/F [1, 6]: 46.9 (16.4) L/h
- Tmax [1, 6]: 1.8 (0.6) hr
- CL/F ([1]; 60 mg single oral dose, plasma, mean (SD), n = 6): 34.0 (11.4) L/h
- dose dependence of Cmax and AUC ([1]; 3-60 mg): increased linearly with dose
- mean half-life estimates ([1]; across dose groups 3-60 mg): 28 to 50 h
- time of peak concentrations after oral dosing ([1]; across dose groups 3-60 mg): 2 to 3 h
- volume of distribution ([1]; across dose groups 3-60 mg): 1417 to 3086 L
- analgesic effect (duration of hand immersion, VAS pain scores) [2]: no analgesic effect
- QT interval prolongation (ΔQTcl) [3]: dose-dependent increase in QT interval prolongation
- mean AUC/24 hr ([4]; single dose of 3 mg): 3.1 ng/mL
- time after administration at which mean Cmax was observed ([4]; single dose of 3 mg): 1.9 h
- mean AUC/24 hr ([4]; single dose of 10 mg): 10.6 ng/mL
- time after administration at which mean Cmax was observed ([4]; single dose of 10 mg): 2.9 h
- mean AUC/24 ([4]; single dose of 30 mg): 29.2 ng/mL
- time after administration at which mean Cmax was observed ([4]; single dose of 30 mg): 1.75 h
- mean AUC/24 ([4]; single dose of 60 mg): 61 ng/mL
- time after administration at which mean Cmax was observed ([4]; single dose of 60 mg): 1.75 h
- Adverse event: Catheter Site Infection ([5]; 60 mg (N = 6)): 0
- Adverse event: Catheter Site Pain ([5]; 60 mg (N = 6)): 0
- Adverse event: Catheter Site Related Reaction ([5]; 60 mg (N = 6)): 0
- Adverse event: Cellulitis ([5]; 60 mg (N = 6)): 0
- Adverse event: Diarrhoea ([5]; 60 mg (N = 6)): 0
- Adverse event: Dry Mouth ([5]; 60 mg (N = 6)): 0
- Adverse event: Ear and Labyrinth Disorders ([5]; 60 mg (N = 6)): 0
- Adverse event: Epistaxis ([5]; 60 mg (N = 6)): 0
- Adverse event: Euphoric Mood ([5]; 60 mg (N = 6)): 0
- Adverse event: General Disorders and Administration Site Conditions ([5]; 60 mg (N = 6)): 0
- Adverse event: Hyperaesthesia ([5]; 60 mg (N = 6)): 0
- Adverse event: Infections and Infestations ([5]; 60 mg (N = 6)): 0
- Adverse event: Limb Discomfort ([5]; 60 mg (N = 6)): 0
- Adverse event: Malaise ([5]; 60 mg (N = 6)): 0
- Adverse event: Nausea ([5]; 60 mg (N = 6)): 0
- Adverse event: Oropharyngeal Pain ([5]; 60 mg (N = 6)): 0
- Adverse event: Pseudoparalysis ([5]; 60 mg (N = 6)): 0
- Adverse event: Respiratory, Thoracic and Mediastinal Disorders ([5]; 60 mg (N = 6)): 0
- Adverse event: Rhinorrhoea ([5]; 60 mg (N = 6)): 0
- Adverse event: Skin Discomfort ([5]; 60 mg (N = 6)): 0
- Adverse event: Skin Irritation ([5]; 60 mg (N = 6)): 0
- Adverse event: Skin and Subcutaneous Tissue Disorders ([5]; 60 mg (N = 6)): 0
- Adverse event: Somnoience ([5]; 60 mg (N = 6)): 0
- Adverse event: Tinnitus ([5]; 60 mg (N = 6)): 0
- Adverse event: Tremor ([5]; 60 mg (N = 6)): 0
- Adverse event: Urinary Tract Infection ([5]; 60 mg (N = 6)): 0
- Adverse event: Vomiting ([5]; 60 mg (N = 6)): 0
- Adverse event: Back Pain ([5]; 120 mg (N = 6)): 0
- Adverse event: Catheter Site Infection ([5]; 120 mg (N = 6)): 0
- Adverse event: Catheter Site Related Reaction ([5]; 120 mg (N = 6)): 0
- Adverse event: Depressed Mood ([5]; 120 mg (N = 6)): 0
- Adverse event: Dry Eye ([5]; 120 mg (N = 6)): 0
- Adverse event: Dyspepsia ([5]; 120 mg (N = 6)): 0
- Adverse event: Euphoric Mood ([5]; 120 mg (N = 6)): 0
- Adverse event: Limb Discomfort ([5]; 120 mg (N = 6)): 0
- Adverse event: Malaise ([5]; 120 mg (N = 6)): 0
- Adverse event: Musculoskeletal and Connective Tissue Disorders ([5]; 120 mg (N = 6)): 0
- Adverse event: Psychiatric Disorders ([5]; 120 mg (N = 6)): 0
- Adverse event: Somnoience ([5]; 120 mg (N = 6)): 0
- Adverse event: Urinary Tract Infection ([5]; 120 mg (N = 6)): 0
- Adverse event: Catheter Site Infection ([5]; 180 mg (N = 6)): 0
- Adverse event: Catheter Site Pain ([5]; 180 mg (N = 6)): 0
- Adverse event: Depressed Mood ([5]; 180 mg (N = 6)): 0
- Adverse event: Diarrhoea ([5]; 180 mg (N = 6)): 0
- Adverse event: Dry Eye ([5]; 180 mg (N = 6)): 0
- Adverse event: Dyspepsia ([5]; 180 mg (N = 6)): 0
- Adverse event: Ear and Labyrinth Disorders ([5]; 180 mg (N = 6)): 0
- Adverse event: Epistaxis ([5]; 180 mg (N = 6)): 0
- Adverse event: Euphoric Mood ([5]; 180 mg (N = 6)): 0
- Adverse event: Hyperaesthesia ([5]; 180 mg (N = 6)): 0
- Adverse event: Malaise ([5]; 180 mg (N = 6)): 0
- Adverse event: Oropharyngeal Pain ([5]; 180 mg (N = 6)): 0
- Adverse event: Pseudoparalysis ([5]; 180 mg (N = 6)): 0
- Adverse event: Psychiatric Disorders ([5]; 180 mg (N = 6)): 0
- Adverse event: Respiratory, Thoracic and Mediastinal Disorders ([5]; 180 mg (N = 6)): 0
- Adverse event: Rhinorrhoea ([5]; 180 mg (N = 6)): 0
- Adverse event: Skin Discomfort ([5]; 180 mg (N = 6)): 0
- Adverse event: Skin Irritation ([5]; 180 mg (N = 6)): 0
- Adverse event: Skin and Subcutaneous Tissue Disorders ([5]; 180 mg (N = 6)): 0
- Adverse event: Somnoience ([5]; 180 mg (N = 6)): 0
- Adverse event: Tinnitus ([5]; 180 mg (N = 6)): 0
- Adverse event: Tremor ([5]; 180 mg (N = 6)): 0
- hallucinatory effects ([5]; 60, 120 or 180 mg single dose): no hallucinatory effects
- single dose maximum tolerated dose (MTD) (cynomolgus monkey): greater than 160 mg/kg
- mortality and clinical signs (cynomolgus monkey; doses up to and including 160 mg/kg): No mortality or treatment related clinical signs

From US20160038505A1, “METHODS AND COMPOSITIONS FOR TREATING IMPULSE CONTROL DISORDER, ANXIETY-RELATED DISORDERS, VIOLENCE AND/OR ANGER, OR REGULATING FOOD INTAKE” (priority 2014, published 2016)
